This is an account of results in patent US8846125B2, “Enaminocarbonyl compounds and their use” (Instytut Chemii Organicznej, Polska Akademia Nauk, priority 2009, dated 2014).

The assay concerns sweet taste of saccharose (panel members). In words: Inhibition of sweet taste of a saccharose solution, qualitative panel evaluation. The class given is in vivo, healthy men. Also noted: key to Inhibition of sweet taste: ++: complete inhibition of sweet taste; −: lack of inhibition of sweet taste. The settings on record: 100 mg saccharose in 5 ml 20% aqueous ethanol plus 100 mg compound, vs saccharose solution without compound. The method, then:
Evaluation of the degree of sweetness of the compounds according to the present invention was performed using a 5-volunteer panel—healthy men—henceforth referred to as panel members. All panel members were informed of the need to maintain safety procedures during the evaluation of the compounds according to the present invention, In particular, of the need to avoid swallowing the tested solutions. Each of the panel members received a 10 ml sample of a solution in a small vial and rinsed out their mouth with the entire contents of the vial for 20 seconds and then spit out the tested solution. Next, they carefully rinsed out their mouth with a large volume of distilled water (at least 150 ml) for at least 30 seconds. When the panel member felt that they no longer perceived any taste, they could proceed with the evaluation of the next solution.
The inhibition of sweet taste of sweet substances or mixtures thereof by inhibitors of sweet taste according to the present invention was examine qualitatively according to the following procedure. Two samples of saccharose, each of 100 mg, are dissolved in 5 ml 20% of aqueous ethanol, and then one solution is supplemented with 100 mg of a compound of an example according to the present invention (compounds from examples 3, 5, and 8). Next, the taste of both solutions is evaluated using the procedure presented above, for the qualitative perception of a sweet taste. […] The study was also performed on compounds from comparative examples 1-19.

As for `C[C@H](NC=C1CCCC1=O)c1ccccc1` [Example 8, (S)-2-(1-phenylethyl)aminomethylenecyclopentanone], the “Inhibition of sweet taste” value is “++” and the “Taste of the saccharose solution with the compound” value is listed as “practically not sweet at all”.
